Results on 10 molecules are retold here after article PMC9927415, “Tyrosine Kinase Inhibitors Display Potent Activity against Cryptosporidium parvum” (Microbiology Spectrum, 2022).

Assay in all cases: KINOMEscan competitive binding, whole panel
In assay [1] the target is T1, panel of 203 kinases (Homo sapiens, UniProt O15146).
T1 construct: purchased DiscoverX (KINOMEscan)
T1 sequence (O15146 24-869): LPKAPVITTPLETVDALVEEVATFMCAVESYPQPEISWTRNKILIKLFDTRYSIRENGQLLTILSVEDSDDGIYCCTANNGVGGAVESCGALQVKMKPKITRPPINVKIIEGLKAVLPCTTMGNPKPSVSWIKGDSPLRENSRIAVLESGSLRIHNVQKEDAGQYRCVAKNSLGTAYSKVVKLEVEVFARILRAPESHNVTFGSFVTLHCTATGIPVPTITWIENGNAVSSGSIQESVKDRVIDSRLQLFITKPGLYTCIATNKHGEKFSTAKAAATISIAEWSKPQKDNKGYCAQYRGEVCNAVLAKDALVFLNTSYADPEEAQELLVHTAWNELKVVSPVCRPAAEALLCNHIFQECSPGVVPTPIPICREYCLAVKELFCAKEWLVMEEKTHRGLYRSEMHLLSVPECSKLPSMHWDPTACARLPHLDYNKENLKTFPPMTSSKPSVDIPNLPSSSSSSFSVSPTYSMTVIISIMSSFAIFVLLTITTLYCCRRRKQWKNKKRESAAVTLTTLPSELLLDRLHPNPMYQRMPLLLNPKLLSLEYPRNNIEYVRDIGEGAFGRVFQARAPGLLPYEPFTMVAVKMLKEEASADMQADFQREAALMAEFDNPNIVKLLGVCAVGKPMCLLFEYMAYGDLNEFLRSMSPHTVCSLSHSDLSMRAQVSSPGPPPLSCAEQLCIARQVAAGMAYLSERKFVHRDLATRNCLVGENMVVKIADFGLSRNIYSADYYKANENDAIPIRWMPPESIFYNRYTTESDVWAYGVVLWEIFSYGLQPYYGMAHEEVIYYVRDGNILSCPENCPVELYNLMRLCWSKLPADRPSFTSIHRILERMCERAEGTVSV
Particulars: 10 µM, n=1; kinase MUSK; read-out: Percent inhibition MUSK. In a few lines:
(§1)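 Kinases were expressed as T7 bacteriophage fusions, and test compounds competed with immobilized ATP-site probe ligands for binding. Kinase remaining bound to the solid-support probe was quantified, and values are given as percentage inhibition.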

Assay [2] addresses T2, panel of 203 kinases (Homo sapiens, UniProt P08581).
T2 construct: purchased DiscoverX (KINOMEscan)
Particulars: 10 µM, n=1; kinase MET; read-out: Percent inhibition MET. The essentials:
as §1

The target of assay [3] is T3, panel of 203 kinases (Homo sapiens, UniProt P31749).
T3 construct: purchased DiscoverX (KINOMEscan)
T3 sequence (P31749 whole entry): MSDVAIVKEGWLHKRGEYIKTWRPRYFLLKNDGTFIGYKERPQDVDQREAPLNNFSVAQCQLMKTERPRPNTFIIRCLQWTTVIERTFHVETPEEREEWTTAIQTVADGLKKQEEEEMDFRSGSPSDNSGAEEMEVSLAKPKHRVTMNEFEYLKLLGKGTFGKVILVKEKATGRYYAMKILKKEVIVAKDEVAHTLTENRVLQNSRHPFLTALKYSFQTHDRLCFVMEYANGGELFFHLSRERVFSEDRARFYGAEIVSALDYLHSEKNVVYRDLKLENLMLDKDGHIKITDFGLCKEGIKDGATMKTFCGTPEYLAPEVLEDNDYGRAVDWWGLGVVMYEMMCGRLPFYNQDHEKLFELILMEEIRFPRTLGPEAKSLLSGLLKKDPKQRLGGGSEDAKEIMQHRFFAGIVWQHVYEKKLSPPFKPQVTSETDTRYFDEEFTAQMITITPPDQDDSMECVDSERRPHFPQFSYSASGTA
Particulars: 10 µM, n=1; kinase AKT1; read-out: Percent inhibition AKT1. In a few lines: as §1

For assay [4], the target named is T4, panel of 203 kinases (Homo sapiens, UniProt P35916).
T4 construct: purchased DiscoverX (KINOMEscan)
T4 sequence (P35916 25-1363): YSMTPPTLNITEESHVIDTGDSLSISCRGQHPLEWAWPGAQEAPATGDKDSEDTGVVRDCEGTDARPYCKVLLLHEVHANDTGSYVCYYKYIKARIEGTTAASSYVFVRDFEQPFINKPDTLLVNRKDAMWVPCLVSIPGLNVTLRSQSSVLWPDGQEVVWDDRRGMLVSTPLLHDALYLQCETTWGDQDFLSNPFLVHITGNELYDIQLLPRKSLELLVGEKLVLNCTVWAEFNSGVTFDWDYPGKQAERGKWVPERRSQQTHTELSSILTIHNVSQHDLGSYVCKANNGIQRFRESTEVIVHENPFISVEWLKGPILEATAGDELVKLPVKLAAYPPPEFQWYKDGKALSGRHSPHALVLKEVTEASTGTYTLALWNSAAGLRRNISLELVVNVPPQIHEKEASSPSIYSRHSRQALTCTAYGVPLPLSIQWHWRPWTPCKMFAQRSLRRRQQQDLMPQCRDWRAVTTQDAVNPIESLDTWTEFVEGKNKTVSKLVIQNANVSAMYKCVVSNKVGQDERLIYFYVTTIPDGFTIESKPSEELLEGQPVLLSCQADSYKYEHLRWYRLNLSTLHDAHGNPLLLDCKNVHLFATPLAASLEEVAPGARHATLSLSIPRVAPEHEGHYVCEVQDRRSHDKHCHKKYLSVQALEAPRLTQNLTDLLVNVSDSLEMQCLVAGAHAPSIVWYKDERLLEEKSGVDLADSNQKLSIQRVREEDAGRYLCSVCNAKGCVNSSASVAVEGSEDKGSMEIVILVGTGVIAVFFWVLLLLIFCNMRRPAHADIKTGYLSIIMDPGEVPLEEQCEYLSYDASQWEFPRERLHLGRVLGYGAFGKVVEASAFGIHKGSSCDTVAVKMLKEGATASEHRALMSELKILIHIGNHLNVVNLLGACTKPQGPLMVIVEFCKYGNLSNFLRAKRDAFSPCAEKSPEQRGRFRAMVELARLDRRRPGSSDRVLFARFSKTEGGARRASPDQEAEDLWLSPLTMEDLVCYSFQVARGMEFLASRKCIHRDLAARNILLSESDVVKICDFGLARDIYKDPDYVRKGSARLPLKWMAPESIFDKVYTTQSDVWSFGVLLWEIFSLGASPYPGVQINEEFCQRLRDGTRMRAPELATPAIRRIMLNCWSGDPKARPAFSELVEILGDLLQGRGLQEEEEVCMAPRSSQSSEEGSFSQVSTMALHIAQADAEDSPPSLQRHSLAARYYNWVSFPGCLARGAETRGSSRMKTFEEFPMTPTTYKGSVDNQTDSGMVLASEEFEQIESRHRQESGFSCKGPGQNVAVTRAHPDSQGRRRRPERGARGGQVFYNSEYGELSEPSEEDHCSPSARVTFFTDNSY
The conditions noted are these: 10 µM, n=1; kinase FLT4; read-out: Percent inhibition FLT4. In a few lines: as §1

Assay [5] addresses T5, panel of 203 kinases (Homo sapiens, UniProt P54753).
T5 construct: purchased DiscoverX (KINOMEscan)
T5 sequence (P54753 34-998): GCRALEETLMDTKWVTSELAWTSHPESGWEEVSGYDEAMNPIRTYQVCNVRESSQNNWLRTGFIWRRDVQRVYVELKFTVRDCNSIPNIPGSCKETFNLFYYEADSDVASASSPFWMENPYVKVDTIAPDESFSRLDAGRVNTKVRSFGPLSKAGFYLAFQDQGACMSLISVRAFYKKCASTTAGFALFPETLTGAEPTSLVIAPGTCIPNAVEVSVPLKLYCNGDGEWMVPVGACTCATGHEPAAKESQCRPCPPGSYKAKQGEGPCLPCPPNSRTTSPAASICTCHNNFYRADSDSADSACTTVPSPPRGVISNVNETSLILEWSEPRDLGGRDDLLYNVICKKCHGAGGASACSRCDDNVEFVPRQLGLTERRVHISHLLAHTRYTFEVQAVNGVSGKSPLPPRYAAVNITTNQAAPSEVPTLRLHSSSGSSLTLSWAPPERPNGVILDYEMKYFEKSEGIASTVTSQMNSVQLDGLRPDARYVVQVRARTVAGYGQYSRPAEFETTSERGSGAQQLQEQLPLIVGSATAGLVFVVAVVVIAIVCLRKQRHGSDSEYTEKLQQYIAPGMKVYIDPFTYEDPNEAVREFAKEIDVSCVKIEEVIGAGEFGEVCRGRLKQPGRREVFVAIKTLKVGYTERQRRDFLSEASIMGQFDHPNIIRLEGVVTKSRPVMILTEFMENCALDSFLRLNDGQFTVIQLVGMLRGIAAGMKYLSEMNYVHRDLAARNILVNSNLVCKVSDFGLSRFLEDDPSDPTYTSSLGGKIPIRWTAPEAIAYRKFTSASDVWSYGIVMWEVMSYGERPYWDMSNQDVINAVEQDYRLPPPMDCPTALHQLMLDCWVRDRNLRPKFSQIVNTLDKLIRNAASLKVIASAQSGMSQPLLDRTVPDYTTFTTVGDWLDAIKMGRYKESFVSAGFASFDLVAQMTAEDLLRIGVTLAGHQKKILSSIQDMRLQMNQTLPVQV
Particulars: 10 µM, n=1; kinase EPHB3; read-out: Percent inhibition EPHB3. In a few lines:
as §1

In assay [6] the target is T6, panel of 203 kinases (Homo sapiens, UniProt P54756).
T6 construct: purchased DiscoverX (KINOMEscan)
The conditions noted are these: 10 µM, n=1; kinase EPHA5; read-out: Percent inhibition EPHA5. In a few lines:
as §1

Assay [7] concerns the target T7, panel of 203 kinases (Homo sapiens, UniProt Q06187).
T7 construct: purchased DiscoverX (KINOMEscan)
The conditions noted are these: 10 µM, n=1; kinase BTK; read-out: Percent inhibition BTK. The essentials:
as §1

The target in assay [8] is T8, panel of 203 kinases (Homo sapiens, UniProt Q15759).
T8 construct: purchased DiscoverX (KINOMEscan)
T8 sequence (Q15759 whole entry): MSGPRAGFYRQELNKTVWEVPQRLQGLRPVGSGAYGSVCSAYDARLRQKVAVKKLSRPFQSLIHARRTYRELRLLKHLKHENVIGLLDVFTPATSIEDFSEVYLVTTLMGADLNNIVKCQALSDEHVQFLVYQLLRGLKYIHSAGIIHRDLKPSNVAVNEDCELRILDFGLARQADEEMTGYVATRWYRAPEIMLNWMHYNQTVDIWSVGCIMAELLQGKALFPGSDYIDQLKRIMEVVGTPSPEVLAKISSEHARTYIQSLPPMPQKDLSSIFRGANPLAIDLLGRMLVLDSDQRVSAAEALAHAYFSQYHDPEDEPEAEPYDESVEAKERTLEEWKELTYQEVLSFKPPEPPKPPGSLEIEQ
The conditions noted are these: 10 µM, n=1; kinase p38-beta; read-out: Percent inhibition p38-beta. The essentials:
as §1

Assay [9] deals with T9, panel of 203 kinases (Homo sapiens, UniProt Q9Y243).
T9 construct: purchased DiscoverX (KINOMEscan)
T9 sequence (Q9Y243 whole entry): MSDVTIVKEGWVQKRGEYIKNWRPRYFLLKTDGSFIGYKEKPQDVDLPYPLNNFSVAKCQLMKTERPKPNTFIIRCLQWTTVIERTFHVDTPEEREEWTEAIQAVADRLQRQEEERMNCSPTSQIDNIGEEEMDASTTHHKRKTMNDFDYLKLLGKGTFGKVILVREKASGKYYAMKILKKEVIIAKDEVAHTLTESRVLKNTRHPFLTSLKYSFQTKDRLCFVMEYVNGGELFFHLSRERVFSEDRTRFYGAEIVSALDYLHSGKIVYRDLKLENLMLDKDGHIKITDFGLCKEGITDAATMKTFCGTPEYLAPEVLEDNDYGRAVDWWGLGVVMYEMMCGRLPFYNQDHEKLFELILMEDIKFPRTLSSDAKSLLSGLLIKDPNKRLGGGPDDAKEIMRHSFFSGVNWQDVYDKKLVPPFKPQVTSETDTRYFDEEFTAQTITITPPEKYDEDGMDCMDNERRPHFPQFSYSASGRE
The conditions noted are these: 10 µM, n=1; kinase AKT3; read-out: Percent inhibition AKT3. In a few lines: as §1

For orientation: inhibition means the relative decrease from the control value, in per cent.

T7 sequence (Q06187 whole entry): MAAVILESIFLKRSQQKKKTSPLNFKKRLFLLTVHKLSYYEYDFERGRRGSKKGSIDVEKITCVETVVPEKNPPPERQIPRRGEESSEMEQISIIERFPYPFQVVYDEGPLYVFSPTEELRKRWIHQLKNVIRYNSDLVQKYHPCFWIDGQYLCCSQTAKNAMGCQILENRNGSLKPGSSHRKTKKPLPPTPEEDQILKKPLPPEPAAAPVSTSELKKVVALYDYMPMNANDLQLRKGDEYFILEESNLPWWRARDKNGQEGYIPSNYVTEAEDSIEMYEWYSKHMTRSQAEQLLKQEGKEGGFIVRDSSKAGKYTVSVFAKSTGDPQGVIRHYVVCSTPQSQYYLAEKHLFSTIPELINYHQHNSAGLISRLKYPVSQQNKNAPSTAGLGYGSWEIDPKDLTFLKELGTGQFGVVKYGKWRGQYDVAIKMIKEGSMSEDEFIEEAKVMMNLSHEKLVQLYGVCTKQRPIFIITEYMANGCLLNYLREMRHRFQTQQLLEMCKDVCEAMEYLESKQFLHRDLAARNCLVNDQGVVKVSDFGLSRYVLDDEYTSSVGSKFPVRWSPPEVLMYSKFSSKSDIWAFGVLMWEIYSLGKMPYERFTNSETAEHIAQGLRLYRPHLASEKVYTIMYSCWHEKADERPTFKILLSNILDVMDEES
T2 sequence (P08581 25-1390): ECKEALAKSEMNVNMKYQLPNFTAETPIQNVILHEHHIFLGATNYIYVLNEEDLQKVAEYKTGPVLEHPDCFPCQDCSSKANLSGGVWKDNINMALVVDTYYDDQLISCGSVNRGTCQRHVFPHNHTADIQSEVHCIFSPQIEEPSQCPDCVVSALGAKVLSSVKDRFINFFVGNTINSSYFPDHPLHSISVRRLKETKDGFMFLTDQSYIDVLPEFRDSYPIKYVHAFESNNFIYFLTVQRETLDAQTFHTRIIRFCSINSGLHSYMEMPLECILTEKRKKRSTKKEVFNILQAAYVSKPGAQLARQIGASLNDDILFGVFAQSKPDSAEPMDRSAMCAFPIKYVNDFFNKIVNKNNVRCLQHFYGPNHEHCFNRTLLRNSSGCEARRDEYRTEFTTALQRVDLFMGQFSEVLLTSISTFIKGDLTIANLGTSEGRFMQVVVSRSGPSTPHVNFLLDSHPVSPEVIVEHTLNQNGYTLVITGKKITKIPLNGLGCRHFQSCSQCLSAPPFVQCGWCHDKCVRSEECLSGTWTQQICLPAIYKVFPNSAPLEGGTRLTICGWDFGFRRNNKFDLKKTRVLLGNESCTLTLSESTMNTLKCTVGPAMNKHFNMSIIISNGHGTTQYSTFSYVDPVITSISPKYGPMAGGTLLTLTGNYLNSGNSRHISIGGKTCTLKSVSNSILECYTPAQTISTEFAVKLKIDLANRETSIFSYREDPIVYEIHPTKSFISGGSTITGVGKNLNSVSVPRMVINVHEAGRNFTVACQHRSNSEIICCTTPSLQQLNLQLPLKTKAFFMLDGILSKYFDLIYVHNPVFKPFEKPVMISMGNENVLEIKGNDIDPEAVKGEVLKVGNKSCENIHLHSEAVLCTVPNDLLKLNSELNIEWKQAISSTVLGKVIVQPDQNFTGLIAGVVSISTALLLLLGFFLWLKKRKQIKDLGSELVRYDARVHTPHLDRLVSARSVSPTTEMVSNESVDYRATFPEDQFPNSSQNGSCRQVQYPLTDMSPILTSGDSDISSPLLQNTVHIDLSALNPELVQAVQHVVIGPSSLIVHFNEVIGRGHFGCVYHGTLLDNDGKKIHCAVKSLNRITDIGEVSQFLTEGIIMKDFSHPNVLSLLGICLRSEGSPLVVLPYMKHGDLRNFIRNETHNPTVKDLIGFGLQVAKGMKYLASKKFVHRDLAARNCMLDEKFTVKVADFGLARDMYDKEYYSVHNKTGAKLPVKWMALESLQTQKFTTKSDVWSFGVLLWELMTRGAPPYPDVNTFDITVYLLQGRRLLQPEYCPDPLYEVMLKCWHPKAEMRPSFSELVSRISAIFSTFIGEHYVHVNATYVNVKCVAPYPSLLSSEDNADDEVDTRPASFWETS

Regarding `Cc1ccc(O)cc1Nc1ccnc(Nc2cccc(C(N)=O)c2)n1` [Compound 3], the inhibition at 10 µM at panel of 203 kinases [1] came out at 0%; on panel of 203 kinases [2], 0%; on panel of 203 kinases [3] it was 0%; on panel of 203 kinases [4] it was 99.2%; at panel of 203 kinases [5], 100%; on panel of 203 kinases [6], 100%. Moreover, the inhibition at 10 µM on panel of 203 kinases [7] stood at 96%; at panel of 203 kinases [8] it was 94.8%; on panel of 203 kinases [9], 0%.
For the molecule `Clc1ccc(Nc2ncc(-c3ccccc3)s2)cc1` [Compound 10], the inhibition at 10 µM at panel of 203 kinases [1], at panel of 203 kinases [2], at panel of 203 kinases [3], at panel of 203 kinases [4], at panel of 203 kinases [5] and at panel of 203 kinases [6] was 0% each time. For the same molecule, the inhibition at 10 µM at panel of 203 kinases [7], on panel of 203 kinases [8] and at panel of 203 kinases [9] was 0% throughout.
For `c1ccc(COc2cccc(-c3ccnc4[nH]ccc34)c2)cc1` [Compound 9], the inhibition at 10 µM on panel of 203 kinases [1], at panel of 203 kinases [2], on panel of 203 kinases [3], on panel of 203 kinases [4], at panel of 203 kinases [5] and at panel of 203 kinases [6] was 0% throughout. In addition, the inhibition at 10 µM on panel of 203 kinases [7], at panel of 203 kinases [8] and on panel of 203 kinases [9] was 0% each time.
For `Fc1cccc(COc2ccc(Nc3ncnc4c3CN(CCN3CCOCC3)CC4)cc2Cl)c1` [Compound 6], the inhibition at 10 µM at panel of 203 kinases [1], on panel of 203 kinases [2], on panel of 203 kinases [3], at panel of 203 kinases [4], on panel of 203 kinases [5] and on panel of 203 kinases [6] was 0% in each case. Further, the inhibition at 10 µM on panel of 203 kinases [7], on panel of 203 kinases [8] and at panel of 203 kinases [9] was 0% each time.
Take `C[C@@H](Oc1cc(-c2cnc3ccccn23)sc1C(N)=O)c1ccccc1Cl` [Compound 8]: the inhibition at 10 µM on panel of 203 kinases [1] is 0%; on panel of 203 kinases [2], 78.4%; on panel of 203 kinases [3] it was 0%; at panel of 203 kinases [4], 84%; at panel of 203 kinases [5], 0%; on panel of 203 kinases [6] it was 0%. Besides, the inhibition at 10 µM on panel of 203 kinases [7], at panel of 203 kinases [8] and on panel of 203 kinases [9] was 0% in each case.
Regarding `CN1CCN(c2ccc(Nc3nccc(-c4cnn5ncccc45)n3)cc2C#N)CC1` [Compound 1], the inhibition at 10 µM amounted to 98.8% on panel of 203 kinases [1]; 0% at panel of 203 kinases [2]; 0% at panel of 203 kinases [3]; 71.9% at panel of 203 kinases [4]; 0% on panel of 203 kinases [5]; 80.2% on panel of 203 kinases [6]. Besides, the inhibition at 10 µM on panel of 203 kinases [7], on panel of 203 kinases [8] and on panel of 203 kinases [9] was 0% throughout.
With `Cc1ccc(O)cc1N(C)c1ccnc(Nc2cccc(S(N)(=O)=O)c2)n1` [Compound 4], the inhibition at 10 µM is 0% at panel of 203 kinases [1]; 90.2% on panel of 203 kinases [2]; 0% on panel of 203 kinases [3]; 99.7% at panel of 203 kinases [4]; 100% on panel of 203 kinases [5]; 100% at panel of 203 kinases [6]. Further, the inhibition at 10 µM at panel of 203 kinases [7] is 95%; at panel of 203 kinases [8] it was 100%; at panel of 203 kinases [9], 0%.
Turning to `COc1ccc(Nc2nccc(-c3cnn4ncccc34)n2)cc1` [Compound 2], the inhibition at 10 µM amounted to 74.8% on panel of 203 kinases [1]; 68.8% on panel of 203 kinases [2]; 0% on panel of 203 kinases [3]; 70.1% at panel of 203 kinases [4]; 0% at panel of 203 kinases [5]; 91.8% on panel of 203 kinases [6]. Moreover, the inhibition at 10 µM on panel of 203 kinases [7], at panel of 203 kinases [8] and on panel of 203 kinases [9] was 0% throughout.
Take `Nc1ncc2c(-c3ccncc3)c[nH]c2n1` [Compound 11]: the inhibition at 10 µM at panel of 203 kinases [1] stood at 93.9%; at panel of 203 kinases [2] it was 0%; on panel of 203 kinases [3], 0%; on panel of 203 kinases [4], 0%; on panel of 203 kinases [5], 0%; on panel of 203 kinases [6], 0%. The inhibition at 10 µM at panel of 203 kinases [7], at panel of 203 kinases [8] and at panel of 203 kinases [9] was 0% each time.
On to `COc1cc(Nc2nccc(-c3sc(N)nc3-c3cccc(NC(=O)c4c(F)cccc4F)c3)n2)cc(OC)c1OC` [Compound 7], for which the inhibition at 10 µM at panel of 203 kinases [1] turned out to be 97.2%; on panel of 203 kinases [2], 99.6%; on panel of 203 kinases [3] it was 0%; on panel of 203 kinases [4], 100%; at panel of 203 kinases [5], 0%; at panel of 203 kinases [6], 100%. The inhibition at 10 µM at panel of 203 kinases [7] is 100%; on panel of 203 kinases [8], 100%; at panel of 203 kinases [9], 0%.
